Results taken from article PMC4015918, “Conjugation to a SMAC mimetic potentiates sigma-2 ligand induced tumor cell death in ovarian cancer” (Molecular Cancer, 2014).

How the values were obtained:
Assay type in all cases: cell-based
SKOV3 cells = assay: SKOV3 cell viability (CellTiter-Glo) with SW IV-134 alone or with pathway blockers
Procedure: (§1) Figure 3 Treatment with SW IV-134 results in caspase-mediated cell death. (A) Cells were treated with vehicle only (Ctrl.), SW43 (10 μM), and SW IV-134 (10 μM) for 24 hours. Cell lysates were subjected to Western blot analysis, and probed with antibodies specific for the precursors and activated forms of caspases 8, 9, and 3. (B) SKOV3 cells were treated with SW IV-134 at indicated doses either alone or in the presence of the pan-caspase inhibitor Z-VAD-FMK (20 μM) for 18 hours. Cell viability was determined by CellTiter-Glo assays (p < 0.018, Student’s t-test).
(§2) Figure 4 SW IV-134 engages in SMAC-dependent pathway activation. (A) SKOV3 cells were treated with vehicle only (Ctrl.), SW43 (10 μM), and SW IV-134 (10 μM) for 4 hours and cell lysates were subjected to Western blot analysis using antibodies against XIAP, cIAP-1, cIAP-2, NF-қB and NIK. While XIAP seems unaffected under the conditions used, cIAP-1 and cIAP-2 proteins are readily undetectable shortly post treatment. SW IV-134 treatment also leads to accumulation of NF-қB inducing kinase (NIK) and activation of NF-қB pathway. (B) SKOV3 cells were treated with SW IV-134 at the indicated doses either alone or in the presence of proteasome inhibitor MG132 (20 μM) for 18 hours. […] Cell viability was determined as described in the experimental methods (p < 0.011, Student’s t-test).
Figure 5 SW IV-134 induces activation of the TNFα-dependent extrinsic death pathway. (A) Quantitative real-time PCR analysis of TNFα mRNA expression was done on RNA samples derived from SKOV3 cells treated with SW IV-134 (1 μM and 3 μM) for indicated time periods. All values were normalized to a GAPDH internal control (p < 0.0001, one-way ANOVA). […] Cell viability was determined as described in the experimental methods (p < 0.019, Student’s t-test).
Cells (1 × 10^4) were seeded into 96 well plates. […] Cell viability was determined 18 hours after treatment using CellTiter-Glo Luminiscent Viability Assay (Promega, Madison, WI). Data were recorded with a SpectraMax Gemini microplate spectrofluorometer, Molecular Devices (Silicon Valley, CA).

Hey A8 cells = assay: Caspase-Glo caspase 3, 8 and 9 activity in Hey A8 cells; conditions: 24 hours
Procedure: Caspase 3, 8 and 9 activities were measured using Caspase-Glo® Assay Systems according to the manufacturer’s instructions (Promega, Madison, WI). Briefly, the assay systems are based on caspase-specific substrates, which are activated by cleavage, resulting in caspase specific luminescence signals. HeyA8 cells were plated at a density of 1 × 10^4 in white 96 well, clear bottom plates for 24 hours before treatment. Cells were treated with different concentrations of SW IV-134. Caspase 3, 8 and 9 assays were performed by adding 100 μl of caspase reagents to each well. The contents were mixed using a plate shaker for 30 seconds and incubated at room temperature for 90 minutes. Luminescence signal was measured using a multi-mode microplate reader (BioTek, Winooski, VT).
Supplementary file 1476-4598-13-50-S3.pdf: Additional file 3: Figure S2 SW IV-134 induces caspase activation in ovarian cancer. Caspase 3, 8 and 9 activities were measured in Hey A8 cells using Caspase-Glo® Assay Systems (Promega). Hey A8 cells were treated with SW IV-134 at indicated drug concentrations for 24 hours. Caspase assays were performed by adding 100 μl lysis buffer containing the substrates for the respective caspase to be assayed. Luminescence signal intensities were recorded using a multi-mode microplate reader (BioTek). […] (A) caspase 8; (B) caspase 9; and (C) caspase 3. p < 0.001 for all analyses, one-way ANOVA. […]

cIAP-1 and cIAP-2 = assay: Western blot for cIAP-1 and cIAP-2 levels; conditions: 10 μM
Procedure: as §2
(§3) Cells were lysed in radioimmunoprecipitation assay buffer [50 mM Tris, 150 mM sodium chloride, 1.0 mM EDTA, 1% Nonidet P40, and 0.25% SDS (pH 7.0)], supplemented with complete protease inhibitor cocktail (Roche, Mannheim) and phosphatase inhibitor cocktail 1 (Sigma Chemical Co., St. Louis, MO). The protein concentration was determined using a BioRad Dc protein assay kit (Bio-Rad Laboratories, Hercules, CA). Lysates containing 30 μg of protein were run on a 12% polyacrylamide gel and transferred to a PVDF membrane (Bio-Rad Laboratories, Hercules, CA). […]

XIAP = target: T1, XIAP (Homo sapiens, UniProt P98170); assay: Western blot for XIAP levels; conditions: SKOV3 cells, 10 μM, 4 hours
T1 construct: endogenous in cells; host or cells: SKOV3
Procedure: as §2, §3

[1] = tested on: caspase 3, caspase 8, and caspase 9; assay: Western blot for precursors and activated forms of caspases 8, 9 and 3; conditions: 10 μM, 24 hours, different ovarian cancer cell lines
Procedure: as §1, §3

NF-қB (p65) = assay: Western blot for phosphorylation of NF-қB (p65); conditions: SKOV3 cells, 10 μM, 4 hours
Procedure: as §2, §3

T1 sequence (P98170 whole entry): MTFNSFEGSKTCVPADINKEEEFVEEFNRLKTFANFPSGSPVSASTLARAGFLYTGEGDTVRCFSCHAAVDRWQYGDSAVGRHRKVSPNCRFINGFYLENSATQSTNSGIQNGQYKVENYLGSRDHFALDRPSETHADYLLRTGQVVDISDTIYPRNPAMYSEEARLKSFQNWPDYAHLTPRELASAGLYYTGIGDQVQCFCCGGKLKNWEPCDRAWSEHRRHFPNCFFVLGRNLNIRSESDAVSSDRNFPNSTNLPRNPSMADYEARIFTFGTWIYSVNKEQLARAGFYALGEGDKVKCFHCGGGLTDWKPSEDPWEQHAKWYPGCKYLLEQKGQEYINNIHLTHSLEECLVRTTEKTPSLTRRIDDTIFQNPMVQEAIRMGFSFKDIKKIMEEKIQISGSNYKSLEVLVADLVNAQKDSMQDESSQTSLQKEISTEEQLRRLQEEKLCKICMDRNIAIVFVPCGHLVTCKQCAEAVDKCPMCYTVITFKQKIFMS

Compound: COc1ccc(C)cc1NC(=O)OC1CC2CCCC(C1)N2CCCCCCCCCCN[C@@H](C)C(=O)N[C@H](C(=O)N1CCC[C@H]1C(=O)N[C@@H]1CCCc2ccccc21)C(C)(C)C (stereo partly drawn) [SW IV-134]
- Cell death induced by SW IV-134 in the presence of TNFα-blocking antibody (SKOV3 cells; SKOV3, 18 hours): significant protection from cell death
- SW IV-134 mediated cell death in the presence of proteasome inhibitor MG132 (SKOV3 cells; SKOV3, MG132 20 μM, 18 hours): significantly reduced
- SW IV-134 induced cell death in the presence of pan-caspase inhibitor Z-VAD-FMK (SKOV3 cells; SKOV3, Z-VAD-FMK 20 μM, 18 hours): significantly reduced
- Caspase 3, 8 and 9 activities (fold over DMSO control) (Hey A8 cells): significant increases in caspase activities
- cIAP-1 protein level (cIAP-1 and cIAP-2; SKOV3, Hey A8 and Hey A8 MDR cells, 2 hours): readily undetectable shortly after treatment
- cIAP-1 and cIAP-2 protein levels (cIAP-1 and cIAP-2; SKOV3 cells, 4 hours): rapid loss of both cIAP-1 and cIAP-2
- XIAP levels (XIAP): without affecting the XIAP levels
- Activation of caspase 3, caspase 8, and caspase 9 [1]: induced
- Activation (phosphorylation) of NF-қB (p65) (NF-қB (p65)): activation (phosphorylation) of NF-қB (p65)
